Assay results reported in US10131652B2, “Pyrimidinyloxy benzene derivatives as herbicides” (E. I. DU PONT DE NEMOURS AND COMPANY, priority 2014, dated 2018).
Like-named read-outs stand apart in the source and are kept apart here.

Assays:
Experiment in all cases: Test D pre-/postemergence plant response
Assay type in all cases: in vivo
[1] = test system: galium (catchweed bedstraw, Galium aparine); conditions: Galium; for pest or weed control at 16 g/ha: 16 g ai/ha; for pest or weed control at 31 g/ha: 31 g ai/ha; for pest or weed control at 62 g/ha: 62 g ai/ha; for pest or weed control at 125 g/ha: 125 g ai/ha
Procedure, shortened: (§1)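 0 = no effect, 100 = complete control: plants were scored this way by visual comparison with controls 13 to 15 days post-treatment. Application was preemergence to sown loam/sand pots or postemergence to 2–18 cm seedlings in peat-based mix.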

[2] = test system: johnsongrass (Sorghum halepense); conditions: Sorghum halepense; for pest or weed control at 16 g/ha: 16 g ai/ha; for pest or weed control at 31 g/ha: 31 g ai/ha; for pest or weed control at 62 g/ha: 62 g ai/ha; for pest or weed control at 125 g/ha: 125 g ai/ha
Procedure, shortened: as §1

[3] = test system: Italian ryegrass (Lolium multiflorum); conditions: Lolium multiflorum; for pest or weed control at 16 g/ha: 16 g ai/ha; for pest or weed control at 31 g/ha: 31 g ai/ha; for pest or weed control at 62 g/ha: 62 g ai/ha; for pest or weed control at 125 g/ha: 125 g ai/ha
Procedure, shortened: as §1

[4] = test system: winter wheat (Triticum aestivum); conditions: Triticum aestivum; for plant injury at 16 g/ha: 16 g ai/ha; for plant injury at 31 g/ha: 31 g ai/ha; for plant injury at 62 g/ha: 62 g ai/ha; for plant injury at 125 g/ha: 125 g ai/ha
Procedure, shortened: as §1

[5] = test system: yellow nutsedge (Cyperus esculentus); conditions: Cyperus; for pest or weed control at 16 g/ha: 16 g ai/ha; for pest or weed control at 31 g/ha: 31 g ai/ha; for pest or weed control at 62 g/ha: 62 g ai/ha; for pest or weed control at 125 g/ha: 125 g ai/ha
Procedure, shortened: as §1

[6] = test system: oilseed rape (Brassica napus); conditions: Brassica napus; for plant injury at 16 g/ha: 16 g ai/ha; for plant injury at 31 g/ha: 31 g ai/ha; for plant injury at 62 g/ha: 62 g ai/ha; for plant injury at 125 g/ha: 125 g ai/ha
Procedure, shortened: as §1

[7] = test system: ragweed (common ragweed, Ambrosia elatior); conditions: Ambrosia artemisiifolia; for pest or weed control at 16 g/ha: 16 g ai/ha; for pest or weed control at 31 g/ha: 31 g ai/ha; for pest or weed control at 62 g/ha: 62 g ai/ha; for pest or weed control at 125 g/ha: 125 g ai/ha
Procedure, shortened: as §1

[8] = test system: corn (Zea mays); conditions: Zea mays; for Corn plant response rating (crop injury, 0 = no effect, 100 = complete kill) at 62 g/ha: 62 g ai/ha
Procedure, shortened: as §1

[9] = test system: large (Lg) crabgrass (Digitaria sanguinalis); conditions: Digitaria sanguinalis; for pest or weed control at 16 g/ha: 16 g ai/ha; for pest or weed control at 31 g/ha: 31 g ai/ha; for pest or weed control at 62 g/ha: 62 g ai/ha; for pest or weed control at 125 g/ha: 125 g ai/ha
Procedure, shortened: as §1

[10] = post-emergence, Postemergence, scale 0 to 100 (0 no effect, 100 complete control), read-out: Galium plant response rating
[11] = post-emergence, Postemergence, scale 0 to 100, 0 no effect, 100 complete control, read-out: Plant response rating, Galium
[12] = pre-emergence, Preemergence, scale 0 to 100 (0 no effect, 100 complete control), read-out: Plant response rating, Galium
[13] = post-emergence, Postemergence, scale 0 to 100 (0 no effect, 100 complete control), read-out: Johnsongrass plant response rating
[14] = post-emergence, Postemergence, scale 0 to 100, 0 no effect, 100 complete control, read-out: Plant response rating, Johnsongrass
[15] = pre-emergence, Preemergence, scale 0 to 100 (0 no effect, 100 complete control), read-out: Plant response rating, Johnsongrass
[16] = post-emergence, Postemergence, scale 0 to 100 (0 no effect, 100 complete control), read-out: Ryegrass, Italian plant response rating
[17] = post-emergence, Postemergence, scale 0 to 100, 0 no effect, 100 complete control, read-out: Plant response rating, Ryegrass, Italian
[18] = pre-emergence, Preemergence, scale 0 to 100 (0 no effect, 100 complete control), read-out: Plant response rating, Ryegrass, Italian
[19] = post-emergence, Postemergence, scale 0 to 100 (0 no effect, 100 complete control), read-out: Wheat plant response rating
[20] = post-emergence, Postemergence, scale 0 to 100, 0 no effect, 100 complete control, read-out: Plant response rating, Wheat
[21] = pre-emergence, Preemergence, scale 0 to 100 (0 no effect, 100 complete control), read-out: Plant response rating, Wheat
[22] = post-emergence, Postemergence, scale 0 to 100 (0 no effect, 100 complete control), read-out: Nutsedge, Yellow plant response rating
[23] = post-emergence, Postemergence, scale 0 to 100, 0 no effect, 100 complete control, read-out: Plant response rating, Nutsedge, Yellow
[24] = pre-emergence, Preemergence, scale 0 to 100 (0 no effect, 100 complete control), read-out: Plant response rating, Nutsedge, Yellow
[25] = post-emergence, Postemergence, scale 0 to 100 (0 no effect, 100 complete control), read-out: Oilseed Rape plant response rating
[26] = post-emergence, Postemergence, scale 0 to 100, 0 no effect, 100 complete control, read-out: Plant response rating, Oilseed Rape
[27] = pre-emergence, Preemergence, scale 0 to 100 (0 no effect, 100 complete control), read-out: Plant response rating, Oilseed Rape
[28] = post-emergence, Postemergence, scale 0 to 100 (0 no effect, 100 complete control), read-out: Ragweed plant response rating
[29] = post-emergence, Postemergence, scale 0 to 100, 0 no effect, 100 complete control, read-out: Plant response rating, Ragweed
[30] = pre-emergence, Preemergence, scale 0 to 100 (0 no effect, 100 complete control), read-out: Plant response rating, Ragweed
[31] = post-emergence, Postemergence, scale 0 to 100 (0 no effect, 100 complete control), read-out: Crabgrass, Large plant response rating
[32] = post-emergence, Postemergence, scale 0 to 100, 0 no effect, 100 complete control, read-out: Plant response rating, Crabgrass, Large
[33] = pre-emergence, Preemergence, scale 0 to 100 (0 no effect, 100 complete control), read-out: Plant response rating, Crabgrass, Large

FC(F)(F)c1cc(-c2ccccc2Oc2ncc(Cl)cn2)on1 [Compound 63, 5-chloro-2-[2-[3-(trifluoromethyl)-5-isoxazolyl]phenoxy]pyrimidine]
0%: pest or weed control at 16 g/ha [3, 16] | pest or weed control at 31 g/ha [3, 16] | pest or weed control at 16 g/ha [3, 18] | plant injury at 16 g/ha [4, 19] | plant injury at 31 g/ha [4, 19] | plant injury at 16 g/ha [4, 21] | plant injury at 31 g/ha [4, 21] | pest or weed control at 16 g/ha [5, 22] | pest or weed control at 31 g/ha [5, 22] | pest or weed control at 16 g/ha [5, 24] | pest or weed control at 31 g/ha [5, 24] | pest or weed control at 62 g/ha [5, 24] | Corn plant response rating (crop injury, 0 = no effect, 100 = complete kill) at 16 g/ha ([8]; pre-emergence, Preemergence, 16 g ai/ha, scale 0 to 100 (0 no effect, 100 complete control))
15%: plant injury at 125 g/ha ([8]; pre-emergence, Preemergence, 125 g ai/ha, read-out: Plant response rating (scale 0 to 100), Corn) | Corn plant response rating (crop injury, 0 = no effect, 100 = complete kill) at 62 g/ha ([8]; pre-emergence, Preemergence, scale 0 to 100 (0 no effect, 100 complete control))
80%: pest or weed control at 62 g/ha [3, 18]
30%: pest or weed control at 125 g/ha [3, 17]
60%: pest or weed control at 16 g/ha [1, 10] | plant injury at 16 g/ha [6, 25]
20%: pest or weed control at 31 g/ha [7, 30]
75%: pest or weed control at 16 g/ha [1, 12] | pest or weed control at 16 g/ha [7, 30]
35%: pest or weed control at 31 g/ha [2, 15] | pest or weed control at 125 g/ha [9, 32]
90%: pest or weed control at 125 g/ha ([3]; pre-emergence, Preemergence, read-out: Plant response rating (scale 0 to 100), Ryegrass, Italian) | plant injury at 31 g/ha [6, 25]
25%: pest or weed control at 62 g/ha [2, 14]
40%: pest or weed control at 31 g/ha [3, 18] | pest or weed control at 31 g/ha [7, 28]
5%: pest or weed control at 16 g/ha [2, 13] | pest or weed control at 31 g/ha [2, 13] | pest or weed control at 16 g/ha [2, 15] | pest or weed control at 62 g/ha [3, 17] | plant injury at 62 g/ha [4, 20] | plant injury at 125 g/ha [4, 20] | pest or weed control at 62 g/ha [5, 23] | pest or weed control at 125 g/ha [5, 23] | pest or weed control at 125 g/ha ([5]; pre-emergence, Preemergence, read-out: Plant response rating (scale 0 to 100), Nutsedge, Yellow) | plant injury at 16 g/ha ([8]; post-emergence, Postemergence, 16 g ai/ha, scale 0 to 100 (0 no effect, 100 complete control), read-out: Corn plant response rating) | plant injury at 31 g/ha ([8]; post-emergence, Postemergence, 31 g ai/ha, scale 0 to 100 (0 no effect, 100 complete control), read-out: Corn plant response rating) | Corn plant response rating (crop injury, 0 = no effect, 100 = complete kill) at 62 g/ha ([8]; post-emergence, Postemergence, scale 0 to 100, 0 no effect, 100 complete control) | Corn plant response rating (crop injury, 0 = no effect, 100 = complete kill) at 31 g/ha ([8]; pre-emergence, Preemergence, 31 g ai/ha, scale 0 to 100 (0 no effect, 100 complete control)) | pest or weed control at 16 g/ha [9, 31] | pest or weed control at 31 g/ha [9, 31]
55%: pest or weed control at 62 g/ha [7, 29] | pest or weed control at 125 g/ha [7, 29] | pest or weed control at 62 g/ha [7, 30]
85%: pest or weed control at 125 g/ha ([2]; pre-emergence, Preemergence, read-out: Plant response rating (scale 0 to 100), Johnsongrass)
65%: pest or weed control at 16 g/ha [9, 33]
98%: pest or weed control at 125 g/ha ([1]; pre-emergence, Preemergence, read-out: Plant response rating (scale 0 to 100), Galium) | pest or weed control at 31 g/ha [1, 12] | pest or weed control at 62 g/ha [1, 12] | plant injury at 62 g/ha [6, 26] | plant injury at 125 g/ha ([6]; pre-emergence, Preemergence, read-out: Plant response rating (scale 0 to 100), Oilseed Rape) | plant injury at 31 g/ha [6, 27] | plant injury at 62 g/ha [6, 27] | pest or weed control at 31 g/ha [9, 33] | pest or weed control at 62 g/ha [9, 33]
100%: plant injury at 125 g/ha [6, 26] | pest or weed control at 125 g/ha ([9]; pre-emergence, Preemergence, read-out: Plant response rating (scale 0 to 100), Crabgrass, Large)
70%: pest or weed control at 31 g/ha [1, 10] | pest or weed control at 62 g/ha [1, 11] | pest or weed control at 125 g/ha [1, 11] | pest or weed control at 62 g/ha [2, 15] | plant injury at 16 g/ha [6, 27] | pest or weed control at 125 g/ha ([7]; pre-emergence, Preemergence, read-out: Plant response rating (scale 0 to 100), Ragweed)
10%: plant injury at 62 g/ha [4, 21] | pest or weed control at 16 g/ha [7, 28] | Corn plant response rating (crop injury, 0 = no effect, 100 = complete kill) at 125 g/ha ([8]; post-emergence, Postemergence, 125 g ai/ha, scale 0 to 100, 0 no effect, 100 complete control) | pest or weed control at 62 g/ha [9, 32]
45%: pest or weed control at 125 g/ha [2, 14] | plant injury at 125 g/ha ([4]; pre-emergence, Preemergence, read-out: Plant response rating (scale 0 to 100), Wheat)
